Experimental data taken from patent US8445502B2, “Pharmaceutical formulations comprising salts of a protein kinase inhibitor and methods of using same” (Astex Pharmaceuticals, Inc., priority 2007, dated 2013).
Read-outs that look alike come from different tables or passages of the source.

Experiments:
[1] = rat, in vivo
Experimental: Twenty-four rats were placed into four groups each consisting of three animals per sex. The animals were weighed the day before dosing, as well as just prior to dosing.
After intravenous infusion of MP470.HCl at 5 mg/kg, average MP470 peak plasma concentrations of 454.3 ng/mL for males and 370.7 ng/mL for females were attained at 0.083 hours (5 minutes), the first sampling point postdose. After oral administration of non-micronized MP470.HCl, peak plasma concentrations of MP470 were attained at 0.5-12 hours for Group 2 (25 mg/kg) and 4-12 hours for Group 3 (100 mg/kg, suspension). The extent of systemic exposure of rats to MP470, characterized by AUCO-∞, was approximately 3.8-fold and 2.9-fold higher in females than in males for Groups 2 and 3, respectively. Average AUCO-∞ values were higher at 100 mg/kg than at 25 mg/kg and the increases in AUCO-∞ were greater than dose-proportional.
After oral administration of micronized MP470.HCl (Group 4), peak plasma concentrations of MP470 were attained at 4-12 hours. The extent of systemic exposure of rats to MP470, characterized by AUCO-∞, was approximately 3.4-fold higher in females than in males for Group 4. The extent of exposure of rats to MP470, characterized by AUCO-∞, was 1.7-fold (males) and 1.4-fold (females) higher for non-micronized MP470 HCl (Group 3) than for micronized MP470 HCl (Group 4).

[2] = 28-day chronic oral tolerability and toxicokinetics in dog; assay type: in vivo; conditions: for mean liver weights compared with the control group / mean liver weights relative to brain weights compared with the control group: dosing period; for mean heart weights relative to body weight compared with the control group: recovery period; for AUC / Cmax / half-life: po
Experimental: In a chronic tolerability study of MP470 hydrochloride salt in the dog, groups of six male and six female dogs received 0, 30, 100, or 300 mg/kg/day of the test article (Groups 1-4, respectively) for 28 days. MP470.HCl was administered, by capsule, as a dry powder blend with sodium lauryl sulfate. […] In males, increased incidences of emesis and soft feces/diarrhea for Groups 3-4 and discolored and mucoid feces for Groups 2-4 were observed. In females, increased incidences of emesis and mucoid feces for Group 4, increased incidences of soft feces/diarrhea for Groups 3-4, and discolored feces for Groups 2-4 were noted. These clinical abnormalities were not considered adverse. No test article-related effects on body weight or food consumption were observed during the dosing or recovery periods. No test-article related lesions were noted during ophthalmic examinations and all electrocardiograms of the test and control animals were within normal limits. No test article related effects on hematology or urinalysis parameters were observed during the dosing or recovery periods.
Test article related effects on clinical chemistry parameters during the dosing period were limited to lower mean serum aspartate aminotransferase (75%) and plasma thyroxine (50%) levels for the Group 4 males when compared with the control group. […] Test article related organ weight changes during the recovery period were limited to statistically lower mean heart weights relative to body weight for the Group 3-4 females (85 and 89%, respectively) when compared with the control group.
There was adequate systemic exposure, in general plasma concentration of the test article increased relatively rapidly after treatment, followed by a steady decline for all dose groups and both sexes. Systemic exposure to the test article, as measured by Cmax and AUC, increased with increasing dose in both sexes, but the increase was generally less than dose proportional. No significant differences in exposure to the test article were observed between male and female dogs. No accumulation of the drug was evident as measured by difference in exposure between day 0 and day 27. The time to reach maximal plasma concentration (t-max) ranged from 2-4 hours for Groups 2 and 3 and ranged from 2-8 hours for Group 4. The terminal half-lives varied widely and ranged from 7-84.7 hours for Group 2, 16-47.7 hours for Group 3 and 10.5-28 hours for Group 4. […] There was a large variability in exposure.
A NOEL could not be determined; the no-observed-adverse-effect level (NOAEL) was considered to be 300 mg/kg/day (6000 mg/m2/d) for both sexes. A STD could not be calculated in this study and is likely to be higher than 300 mg/kg/day (6000 mg/m2/d).

[3] = Group 3 females (100 mg/kg/day)
[4] = Group 4 females (300 mg/kg/day)
[5] = both sexes, beagle, dog, in vivo, 30 mg/kg/day
[6] = both sexes, beagle, dog, in vivo, 100 mg/kg/day
[7] = both sexes, beagle, dog, in vivo, 300 mg/kg/day

Cl.S=C(NCc1ccc2c(c1)OCO2)N1CCN(c2ncnc3c2oc2ccccc23)CC1 [MP470.HCl, 4-[1]benzofuro[3,2-d]pyrimidin-4-yl-N-(1,3-benzodioxol-5-ylmethyl)piperazine-1-carbothioamide hydrochloride]
Bioavailability (%) ([1]; female): 100.21%
AUC INF ([1]; female, iv, 5 mg/kg): 2530.9 ng·h/mL
t1/2 ([1]; female, iv, 5 mg/kg): 2.6 to 2.9 h
AUC INF ([1]; female, po, 25 mg/kg): 12681.6 ng·h/mL
t1/2 ([1]; female, po, 25 mg/kg): 4.0 to 17.4 h
Bioavailability (%) ([1]; male): 43.40%
AUC INF ([1]; male, iv, 5 mg/kg): 1546.3 ng·h/mL
t1/2 ([1]; male, iv, 5 mg/kg): 3.1 to 4.4 h
AUC INF ([1]; male, po, 25 mg/kg): 3355.1 ng·h/mL
t1/2 ([1]; male, po, 25 mg/kg): 2.8 to 4.2 h
mean liver weights compared with the control group ([2]; Group 2 females (30 mg/kg/day)): 124%
mean liver weights relative to brain weights compared with the control group ([2]; Group 2 females (30 mg/kg/day)): 117%
mean liver weights compared with the control group [2, 3]: 123%
mean liver weights relative to brain weights compared with the control group [2, 3]: 121%
mean heart weights relative to body weight compared with the control group [2, 3]: 85%
mean liver weights compared with the control group [2, 4]: 119%
mean liver weights relative to brain weights compared with the control group [2, 4]: 120%
mean heart weights relative to body weight compared with the control group [2, 4]: 89%
NOAEL at 28 days ([2]; beagle, dog, in vivo, dogs, both sexes, 28 days, read-out: no-observed-adverse-effect level (NOAEL)): 300 mg/kg/day
AUC [2, 5]: 97.9 to 1130 ng·h/mL
Cmax [2, 5]: 42.5 to 154 ng/mL
half-life [2, 5]: 7 to 84.7 h
AUC [2, 6]: 257 to 2530 ng·h/mL
Cmax [2, 6]: 78.3 to 231 ng/mL
half-life [2, 6]: 16 to 47.7 h
AUC [2, 7]: 559 to 4890 ng·h/mL
Cmax [2, 7]: 192 to 329 ng/mL
half-life [2, 7]: 10.5 to 28 h
STD (severely toxic dose) ([2]; both, beagle, dog, in vivo, 28 days): > 6000 mg/m2/d
mortalities ([2]; dogs, 30, 100 or 300 mg/kg/day by capsule, 28 days): no mortalities
time to reach maximal plasma concentration (t-max) ([2]; dogs, Group 4 (300 mg/kg/day)): 2 to 8 h
time to reach maximal plasma concentration (t-max) ([2]; dogs, Groups 2 and 3 (30 and 100 mg/kg/day)): 2 to 4 h
no-observed-adverse-effect level (NOAEL) ([2]; dogs, both sexes, 28 days): 6000 mg/m2/d
